Measured values published in US12037344B2, “NLRP3 modulators” (INNATE TUMOR IMMUNITY, INC., priority 2018, dated 2024).

Legend:
[1] = molecular target: T1, TLR7 (Homo sapiens, UniProt Q9NYK1); experiment: In vitro human TLR7 binding reporter assay (HEK-Blue, NF-kB/AP1-inducible SEAP); format: cell-based; settings: activity range class, read-out: TLR7 Agonist EC50
T1 construct: human HEK-Blue cells co-expressing a TLR7 or TLR8 gene
T1 sequence (Q9NYK1 27-1049): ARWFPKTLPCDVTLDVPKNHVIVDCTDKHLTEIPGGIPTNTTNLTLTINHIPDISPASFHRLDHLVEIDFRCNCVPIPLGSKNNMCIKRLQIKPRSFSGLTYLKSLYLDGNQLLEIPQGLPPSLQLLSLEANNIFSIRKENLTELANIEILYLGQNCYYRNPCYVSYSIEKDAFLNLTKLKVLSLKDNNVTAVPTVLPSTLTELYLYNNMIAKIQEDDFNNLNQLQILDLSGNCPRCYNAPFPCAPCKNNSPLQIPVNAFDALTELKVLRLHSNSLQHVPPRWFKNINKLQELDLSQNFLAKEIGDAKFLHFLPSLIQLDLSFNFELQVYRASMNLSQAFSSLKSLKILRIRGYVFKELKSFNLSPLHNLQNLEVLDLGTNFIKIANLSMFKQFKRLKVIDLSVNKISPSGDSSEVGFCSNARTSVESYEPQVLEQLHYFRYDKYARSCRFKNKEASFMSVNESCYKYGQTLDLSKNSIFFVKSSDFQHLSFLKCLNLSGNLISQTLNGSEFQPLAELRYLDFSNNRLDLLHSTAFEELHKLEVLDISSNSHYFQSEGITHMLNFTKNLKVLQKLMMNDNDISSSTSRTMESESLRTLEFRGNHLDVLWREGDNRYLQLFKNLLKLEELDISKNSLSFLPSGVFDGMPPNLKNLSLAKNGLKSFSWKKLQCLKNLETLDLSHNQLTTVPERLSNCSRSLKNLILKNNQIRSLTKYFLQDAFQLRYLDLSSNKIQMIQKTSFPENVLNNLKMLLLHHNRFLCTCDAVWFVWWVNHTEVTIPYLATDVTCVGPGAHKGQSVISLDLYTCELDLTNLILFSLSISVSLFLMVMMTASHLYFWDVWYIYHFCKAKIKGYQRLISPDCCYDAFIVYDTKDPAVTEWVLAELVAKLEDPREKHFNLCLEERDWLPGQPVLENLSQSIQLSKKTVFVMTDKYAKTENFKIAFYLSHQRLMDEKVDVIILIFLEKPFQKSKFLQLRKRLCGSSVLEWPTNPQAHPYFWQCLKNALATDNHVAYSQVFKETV
Method in brief: (§1)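 EC50s come from NF-kB/AP1-driven SEAP secretion in HEK-Blue cells expressing TLR7 or TLR8, measured with Quanti-Blue after an 18 h compound incubation. Maximal response is defined by a 50 μM reference standard.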

[2] = tested on: THP-1 cells; experiment: Measurement of IL-1β production, hTRF protocol (second alternative procedure), THP-1 cells; format: cell-based, human; settings: Homo sapiens, THP-1, IL-1β production, human; read-out: NLRP3 hILIB EC50
Method in brief: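 Compounds, dilution series starting at a final 10 μM, were incubated 2 hours at 37° C with PMA-differentiated THP-1 cells (50 ng/ml overnight; 50,000 cells/well, 2% FBS RPMI). Released IL-1β quantified in supernatant by hTRF kit with 1:40 antibody dilution, 4° C overnight, 665/615 nm ratio.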

[3] = molecular target: T2, TLR8 (Homo sapiens, UniProt Q9NR97); experiment: In vitro human TLR8 binding reporter assay (HEK-Blue, NF-kB/AP1-inducible SEAP); format: cell-based; settings: activity range class, read-out: TLR8 Agonist EC50
T2 construct: human HEK-Blue cells co-expressing a TLR7 or TLR8 gene
T2 sequence (Q9NR97 27-1041): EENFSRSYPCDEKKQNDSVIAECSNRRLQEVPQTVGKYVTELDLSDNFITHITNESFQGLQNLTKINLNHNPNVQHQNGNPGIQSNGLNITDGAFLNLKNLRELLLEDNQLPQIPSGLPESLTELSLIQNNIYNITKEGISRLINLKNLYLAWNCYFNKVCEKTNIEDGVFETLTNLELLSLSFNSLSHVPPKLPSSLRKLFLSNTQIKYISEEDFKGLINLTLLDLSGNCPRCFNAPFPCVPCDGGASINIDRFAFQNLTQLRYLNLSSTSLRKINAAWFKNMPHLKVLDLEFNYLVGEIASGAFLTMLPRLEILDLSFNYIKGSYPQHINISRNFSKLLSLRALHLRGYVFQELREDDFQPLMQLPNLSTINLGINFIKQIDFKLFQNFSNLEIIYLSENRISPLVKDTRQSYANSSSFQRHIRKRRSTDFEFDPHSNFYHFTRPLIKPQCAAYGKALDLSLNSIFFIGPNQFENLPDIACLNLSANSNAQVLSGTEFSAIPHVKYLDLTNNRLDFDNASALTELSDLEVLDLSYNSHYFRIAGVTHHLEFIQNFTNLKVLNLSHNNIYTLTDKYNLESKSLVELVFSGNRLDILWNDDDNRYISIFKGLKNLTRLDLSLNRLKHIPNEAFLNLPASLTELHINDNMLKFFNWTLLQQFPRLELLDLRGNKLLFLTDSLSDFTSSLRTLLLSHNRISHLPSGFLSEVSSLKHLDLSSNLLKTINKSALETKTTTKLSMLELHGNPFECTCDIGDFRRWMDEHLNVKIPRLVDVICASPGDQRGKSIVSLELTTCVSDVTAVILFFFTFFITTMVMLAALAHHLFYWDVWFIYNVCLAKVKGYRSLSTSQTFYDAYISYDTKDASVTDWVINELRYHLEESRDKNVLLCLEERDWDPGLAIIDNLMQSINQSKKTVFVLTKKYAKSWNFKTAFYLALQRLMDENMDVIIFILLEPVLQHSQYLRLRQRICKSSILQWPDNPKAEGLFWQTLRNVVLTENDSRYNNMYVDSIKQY
Method in brief: as §1

Compound | EC50 [1] [µM] | EC50 [2] [µM] | EC50 [3] [µM]
Cc1nc(C(=O)NCCn2cc3c(n2)c(N)nc2cc(-c4cc[nH]n4)ccc23)co1 [Example 76] | > 100 | 0.33 | > 100
Cc1cc(Nc2cccc(C(=O)NCCn3cc4c(n3)c(N)nc3cc(-c5cc[nH]n5)ccc34)n2)n(C)n1 [Example 78] | > 100 | 4.71 | > 100
CC(C)(C)OC(=O)Nc1nc(C(=O)NCCn2cc3c(n2)c(N)nc2cc(-c4cc[nH]n4)ccc23)cs1 [Example 80] | > 100 | 2.07 | 20 to 100
Nc1nc2cc(-c3cc[nH]n3)ccc2c2cn(CCNC(=O)c3cnccn3)nc12 [Example 83] | > 100 | 0.36 | > 100
Nc1nc2cc(-c3cc[nH]n3)ccc2c2cn(CCNC(=O)c3csc(-c4ccncc4)n3)nc12 [Example 86] | > 100 | 2.77 | > 100
Cn1cnc(C(=O)NCCn2cc3c(n2)c(N)nc2cc(-c4cc[nH]n4)ccc23)c1 [Example 87] | > 100 | 1.03 | > 100
Nc1nc2cc(-c3cc[nH]n3)ccc2c2cn(CCNC(=O)c3ncc(C(F)(F)F)cc3F)nc12 [Example 91] | > 100 | 1.17 | 20 to 100
Nc1nc2cc(-c3cc[nH]n3)ccc2c2cn(CCNC(=O)C3CCCCO3)nc12 (stereo not drawn) [Example 93] | > 100 | 0.63 | > 100
Cc1csc(C(=O)NCCn2cc3c(n2)c(N)nc2cc(-c4cc[nH]n4)ccc23)n1 [Example 96] | > 100 | 0.31 | 20 to 100
Nc1nc2cc(-c3cc[nH]n3)ccc2c2cn(CCNC(=O)c3cnc4ccccn4c3=O)nc12 [Example 98] | > 100 | 1.59 | > 100
Cn1ccnc1C(=O)NCCn1cc2c(n1)c(N)nc1cc(-c3cc[nH]n3)ccc12 [Example 99] | 20 to 100 | 0.46 | > 100
Nc1nc2cc(-c3cc[nH]n3)ccc2c2cn(CCN3Cc4ccccc4C3=O)nc12 [Example 102, 2-{2-[4-amino-7-(1H-pyrazol-3-yl)-2H-pyrazolo[3,4-c]quinolin-2-yl]ethyl}-2,3-dihydro-1H-isoindol-1-one] | 20 to 100 | 0.41 | 20 to 100
Nc1nc2cc(-c3cc[nH]n3)ccc2c2cn(CCN3Cc4ccc(F)cc4C3=O)nc12 [Example 103, 2-{2-[4-amino-7-(1H-pyrazol-3-yl)-2H-pyrazolo[3,4-c]quinolin-2-yl]ethyl}-6-fluoro-2,3-dihydro-1H-isoindol-1-one] | > 100 | 0.65 | > 100
Nc1nc2cc(-c3cc[nH]n3)ccc2c2cn(CCN3Cc4cc(Cl)ccc4C3=O)nc12 [Example 104, 2-{2-[4-amino-7-(1H-pyrazol-3-yl)-2H-pyrazolo[3,4-c]quinolin-2-yl]ethyl}-5-chloro-2,3-dihydro-1H-isoindol-1-one] | 20 to 100 | 0.13 | 1 to 20

The remaining lines, values ahead:

EC50 [1] [µM] | EC50 [2] [µM] | EC50 [3] [µM] | Compound
20 to 100 | 0.14 | 20 to 100 | Nc1nc2cc(-c3cc[nH]n3)ccc2c2cn(CCNC(=O)c3ccc(Cl)cn3)nc12 [Example 72]
> 100 | 2.96 | > 100 | Nc1nc2cc(-c3cc[nH]n3)ccc2c2cn(CCNC(=O)c3cccnn3)nc12 [Example 73]
> 100 | 0.25 | 20 to 100 | Nc1nc2cc(-c3cc[nH]n3)ccc2c2cn(CCNC(=O)c3ccccc3F)nc12 [Example 74]
> 100 | 0.64 | > 100 | Nc1nc2cc(-c3cc[nH]n3)ccc2c2cn(CCNC(=O)c3ccncn3)nc12 [Example 75]
> 100 | 1.68 | > 100 | Nc1nc2cc(-c3cc[nH]n3)ccc2c2cn(CCNC(=O)c3cccc(F)c3)nc12 [Example 77]
> 100 | 1.59 | > 100 | COc1cccc(C(=O)NCCn2cc3c(n2)c(N)nc2cc(-c4cc[nH]n4)ccc23)c1 [Example 79]
> 100 | 0.68 | 20 to 100 | COc1ccccc1C(=O)NCCn1cc2c(n1)c(N)nc1cc(-c3cc[nH]n3)ccc12 [Example 81]
> 100 | 0.73 | 20 to 100 | Nc1nc2cc(-c3cc[nH]n3)ccc2c2cn(CCNC(=O)c3cccc(Cl)c3)nc12 [Example 82]
> 100 | 1.79 | > 100 | Nc1nc2cc(-c3cc[nH]n3)ccc2c2cn(CCNC(=O)c3cnco3)nc12 [Example 84]
20 to 100 | 0.4 | 20 to 100 | Nc1nc2cc(-c3cc[nH]n3)ccc2c2cn(CCNC(=O)c3ncc(Cl)cc3F)nc12 [Example 85]
20 to 100 | 0.13 | 20 to 100 | Nc1nc2cc(-c3cc[nH]n3)ccc2c2cn(CCNC(=O)c3csc(Cl)n3)nc12 [Example 88]
> 100 | 0.12 | 1 to 20 | Nc1nc2cc(-c3cc[nH]n3)ccc2c2cn(CCNC(=O)c3ccc(F)c(Cl)n3)nc12 [Example 89]
20 to 100 | 0.08 | 20 to 100 | Nc1nc2cc(-c3cc[nH]n3)ccc2c2cn(CCNC(=O)c3cccc(C(F)(F)F)n3)nc12 [Example 90]
> 100 | 1.07 | > 100 | Nc1nc2cc(-c3cc[nH]n3)ccc2c2cn(CCNC(=O)c3ncccc3Cl)nc12 [Example 92]
> 100 | 0.21 | 20 to 100 | Cc1ccc(C(=O)NCCn2cc3c(n2)c(N)nc2cc(-c4cc[nH]n4)ccc23)nc1 [Example 94]
> 100 | 0.09 | > 100 | Nc1nc2cc(-c3cc[nH]n3)ccc2c2cn(CCNC(=O)c3cscn3)nc12 [Example 95]
> 100 | 0.23 | > 100 | Nc1nc2cc(-c3cc[nH]n3)ccc2c2cn(CCNC(=O)c3nccs3)nc12 [Example 97]
> 100 | 1.67 | > 100 | Cn1cnc2c(C(=O)NCCn3cc4c(n3)c(N)nc3cc(-c5cc[nH]n5)ccc34)cccc21 [Example 100]
> 100 | 2.39 | > 100 | Nc1nc2cc(-c3cc[nH]n3)ccc2c2cn(CCNC(=O)c3cnn4cccnc34)nc12 [Example 101]
